Test results taken from US8389557B2, “Triazole derivatives useful as Axl inhibitors” (Rigel Pharmaceuticals, Inc., priority 2005, dated 2013).

Biological target: T1, Axl (Homo sapiens, UniProt P30530)
T1 construct: endogenous in cells; host or cells: HeLa cells
T1 sequence (P30530 26-894): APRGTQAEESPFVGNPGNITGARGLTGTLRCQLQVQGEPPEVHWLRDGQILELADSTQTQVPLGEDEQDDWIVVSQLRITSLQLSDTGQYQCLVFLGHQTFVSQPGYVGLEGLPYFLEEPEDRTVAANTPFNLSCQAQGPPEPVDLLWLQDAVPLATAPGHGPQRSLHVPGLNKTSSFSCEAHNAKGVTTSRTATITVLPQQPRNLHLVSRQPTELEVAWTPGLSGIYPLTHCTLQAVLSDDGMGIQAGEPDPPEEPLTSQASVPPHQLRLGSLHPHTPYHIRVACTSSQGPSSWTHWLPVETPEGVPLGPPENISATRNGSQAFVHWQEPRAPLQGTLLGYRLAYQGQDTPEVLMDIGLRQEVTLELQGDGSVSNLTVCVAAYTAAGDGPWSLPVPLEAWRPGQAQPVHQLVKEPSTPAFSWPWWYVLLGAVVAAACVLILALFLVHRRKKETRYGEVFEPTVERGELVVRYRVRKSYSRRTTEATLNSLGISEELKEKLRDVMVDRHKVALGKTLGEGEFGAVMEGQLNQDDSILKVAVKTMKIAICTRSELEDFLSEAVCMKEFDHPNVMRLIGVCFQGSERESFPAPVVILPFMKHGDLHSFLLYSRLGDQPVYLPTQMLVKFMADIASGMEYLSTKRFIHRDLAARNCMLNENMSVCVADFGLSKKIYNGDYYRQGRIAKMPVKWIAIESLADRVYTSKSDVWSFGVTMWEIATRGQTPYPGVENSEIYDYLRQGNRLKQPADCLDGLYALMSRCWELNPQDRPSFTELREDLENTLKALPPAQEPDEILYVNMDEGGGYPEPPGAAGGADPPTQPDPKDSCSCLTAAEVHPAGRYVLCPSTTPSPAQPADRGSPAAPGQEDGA
Assay: Phospho-Akt in-cell Western assay (inhibition of Axl activity)
Format: cell-based
Method in brief: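 HeLa cells on poly-L-lysine, starved 24 h in 0.5% FCS DMEM with Axl/Fc 500 ng/mL, pre-treated with compound 1 h at 37° C. Axl stimulated 5 min by anti-Axl/anti-mouse antibody cross-linking. Fixed cells probed with anti-phospho-Akt and HRP secondary, chemiluminescence read.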

[1] = Table 3, Hela cells, Axl antibody cross-linking stimulation, phospho-Akt chemiluminescence
[2] = inhibition of Axl activity, phospho-Akt in-cell Western assay, Table 1
[3] = Table 2, Hela cells, Axl antibody cross-linking stimulation, phospho-Akt chemiluminescence

Compound | IC50 [2] | also measured
Nc1nc(Nc2ccc(OCCN3CCCC3)cc2)nn1C(=O)c1cccs1 [compound 285, 5-amino-1-(thien-2-yl)carbonyl-3-[4-[2-(pyrrolidin-1-yl)ethoxy]phenylamino]-1H-1,2,4-triazole] |  | IC50 [1]: < 1 µM
CNc1ccc(C(=O)n2nc(Nc3ccc(OCCN4CCCC4)cc3)nc2N)cc1 [compound 286, 5-amino-1-(4-(methylamino)phenyl)carbonyl-3-[4-[2-(pyrrolidin-1-yl)ethoxy]phenylamino]-1H-1,2,4-triazole] | < 1 µM | 
CSc1ccc(C(=O)n2nc(Nc3ccc(OCCN4CCCC4)cc3)nc2N)cc1 [compound 287, 5-amino-1-(4-(methylthio)phenyl)carbonyl-3-[4-[2-(pyrrolidin-1-yl)ethoxy]phenylamino]-1H-1,2,4-triazole] | < 1 µM | 
Nc1nc(Nc2ccc(OCCN3CCCC3)cc2)nn1C(=O)c1ccc2ncccc2c1 [compound 288, 5-amino-1-(quinolin-6-yl)carbonyl-3-[4-[2-(pyrrolidin-1-yl)ethoxy]phenylamino]-1H-1,2,4-triazole] |  | IC50 [1]: < 1 µM
Nc1nc(Nc2ccc(OCCN3CCCC3)cc2)nn1C(=O)c1c(F)cccc1F [compound 289, 5-amino-1-(2,6-difluorophenyl)carbonyl-3-[4-[2-(pyrrolidin-1-yl)ethoxy]phenylamino]-1H-1,2,4-triazole] | > 20 µM | 
CC(C)(C)C(=O)Nc1ccc(C(=O)n2nc(Nc3ccc(OCCN4CCCC4)cc3)nc2N)cc1 [compound 290, 5-amino-1-(4-(tert-butylcarbonylamino)phenyl)carbonyl-3-[4-[2-(pyrrolidin-1-yl)ethoxy]phenylamino]-1H-1,2,4-triazole] | 10 to 20 µM | 
CC(C)(C)Oc1ccc(C(=O)n2nc(Nc3ccc(N4CCCC4)cc3)nc2N)cc1 [compound 291, 5-amino-1-(4-(tert-butoxy)phenyl)carbonyl-3-[4-(pyrrolidin-1-yl)phenylamino]-1H-1,2,4-triazole] | > 20 µM | 
CC(C)(C)Oc1ccc(C(=O)n2nc(N)nc2Nc2ccc(N3CCCC3)cc2)cc1 [compound 292, 3-amino-1-(4-(tert-butoxy)phenyl)carbonyl-5-(4-(pyrrolidin-1-yl)phenylamino]-1H-1,2,4-triazole] |  | IC50 [3]: > 20 µM
CC(C)Oc1ccc(C(=O)n2nc(N)nc2Nc2ccc(N3CCCC3)cc2)cc1 [compound 294, 3-amino-1-(4-(iso-propoxy)phenyl)carbonyl-5-(4-(pyrrolidin-1-yl)phenylamino]-1H-1,2,4-triazole] |  | IC50 [3]: > 20 µM
CC1(C)Oc2ccc(C(=O)n3nc(Nc4ccc(N5CCCC5)cc4)nc3N)cc2NC1=O [compound 295, 5-amino-1-(2,2-dimethyl-2H-benzo[b][1,4]oxazin-3(4H)-on-6-yl)carbonyl-3-[4-(pyrrolidin-1-yl)phenylamino]-1H-1,2,4-triazole] |  | IC50 [1]: 1 to 10 µM
CC1(C)Oc2ccc(C(=O)n3nc(N)nc3Nc3ccc(N4CCCC4)cc3)cc2NC1=O [compound 296, 3-amino-1-(2,2-dimethyl-2H-benzo[b][1,4]oxazin-3(4H)-on-6-yl)carbonyl-5-[4-(pyrrolidin-1-yl)phenylamino]-1H-1,2,4-triazole] |  | IC50 (Table 4, Hela cells, Axl antibody cross-linking stimulation, phospho-Akt chemiluminescence): 10 to 20 µM
CC(C)(C)c1ccc(C(=O)n2nc(N)nc2Nc2ccc(N3CCCC3)cc2)cc1 [compound 298, 3-amino-1-(4-(tert-butyl)phenyl)carbonyl-5-[4-(pyrrolidin-1-yl)phenylamino]-1H-1,2,4-triazole] |  | IC50 [3]: > 20 µM
Cc1ccc(C(=O)n2nc(N)nc2Nc2ccc(N3CCCC3)cc2)cc1 [compound 301, 3-amino-1-(4-methylphenyl)carbonyl-5-(4-(pyrrolidin-1-yl)phenylamino]-1H-1,2,4-triazole] |  | IC50 [3]: > 20 µM
CC(C)(C)c1ccc(C(=O)n2nc(Nc3ccc(OCCN4CCCC4)cc3)nc2N)cc1 [compound 302, 5-amino-1-(4-(tert-butyl)phenyl)carbonyl-3-[4-[2-(pyrrolidin-1-yl)ethoxy]phenylamino]-1H-1,2,4-triazole] | < 1 µM | 
CC(C)(C)c1ccc(C(=O)n2nc(N)nc2Nc2ccc(OCCN3CCCC3)cc2)cc1 [compound 303, 3-amino-1-(4-(tert-butyl)phenyl)carbonyl-5-[4-[2-(pyrrolidin-1-yl)ethoxy]phenylamino]-1H-1,2,4-triazole] |  | IC50 [3]: 1 to 10 µM
Nc1nc(Nc2ccc(OCCN3CCCC3)c(F)c2)n(C(=O)c2ccc(N3CCOCC3)cc2)n1 [compound 304, 3-amino-1-(4-(morpholin-4-yl)phenyl)carbonyl-5-[3-fluoro-4-[2-(pyrrolidin-1-yl)ethoxy]phenylamino]-1H-1,2,4-triazole] |  | IC50 [3]: 10 to 20 µM
CC(C)(C)Oc1ccc(C(=O)n2nc(Nc3ccc(OCCN4CCCC4)c(F)c3)nc2N)cc1 [compound 305, 5-amino-1-(4-(tert-butoxy)phenyl)carbonyl-3-[3-fluoro-4-[2-(pyrrolidin-1-yl)ethoxy]phenylamino]-1H-1,2,4-triazole] | < 1 µM | 
Nc1nc(Nc2ccc(OCCN3CCCC3)c(F)c2)nn1C(=O)c1ccc(-c2csnn2)cc1 [compound 306, 5-amino-1-(4-(1,2,3-thiadiazol-4-yl)phenyl)carbonyl-3-[3-fluoro-4-[2-(pyrrolidin-1-yl)ethoxy]phenylamino]-1H-1,2,4-triazole] | < 1 µM | 
CC(C)Oc1ccc(C(=O)n2nc(Nc3ccc(OCCN4CCCC4)c(F)c3)nc2N)cc1 [compound 307, 5-amino-1-(4-(iso-propoxy)phenyl)carbonyl-3-[3-fluoro-4-[2-(pyrrolidin-1-yl)ethoxy]phenylamino]-1H-1,2,4-triazole] | < 1 µM | 
Nc1nc(Nc2ccc(OCCN3CCCC3)c(F)c2)nn1C(=O)c1ccccc1 [compound 308, 5-amino-1-(phenyl)carbonyl-3-[3-fluoro-4-[2-(pyrrolidin-1-yl)ethoxy]phenylamino]-1H-1,2,4-triazole] | < 1 µM | 
Nc1nc(Nc2ccc(OCCN3CCCC3)c(F)c2)nn1C(=O)c1ccc2cc[nH]c2c1 [compound 309, 5-amino-1-(1H-indol-6-yl)carbonyl-3-[3-fluoro-4-[2-(pyrrolidin-1-yl)ethoxy]phenylamino]-1H-1,2,4-triazole] |  | IC50 [1]: < 1 µM
Nc1nc(Nc2ccc(OCCN3CCCC3)cc2)nn1C(=O)c1cccc(-c2nccs2)c1 [compound 310, 5-amino-1-(3-(thiazol-2-yl)phenyl)carbonyl-3-[4-[2-(pyrrolidin-1-yl)ethoxy]phenylamino]-1H-1,2,4-triazole] | < 1 µM | 
Nc1nc(Nc2ccc(OCCN3CCCC3)cc2)nn1C(=O)c1ccc(-c2cccs2)cc1 [compound 311, 5-amino-1-(4-(thien-2-yl)phenyl)carbonyl-3-[4-[2-(pyrrolidin-1-yl)ethoxy]phenylamino]-1H-1,2,4-triazole] | < 1 µM | 
Nc1nc(Nc2ccc(OCCN3CCCC3)cc2)nn1C(=O)c1csnn1 [compound 312, 5-amino-1-(1,2,3-thiadiazol-4-yl)carbonyl-3-[4-[2-(pyrrolidin-1-yl)ethoxy]phenylamino]-1H-1,2,4-triazole] |  | IC50 [1]: > 20 µM
Nc1nc(Nc2ccc(OCCN3CCCC3)cc2)nn1C(=O)c1cccc(-c2cccs2)c1 [compound 313, 5-amino-1-(3-(thien-2-yl)phenyl)carbonyl-3-[4-[2-(pyrrolidin-1-yl)ethoxy]phenylamino]-1H-1,2,4-triazole] | < 1 µM | 
Nc1nc(Nc2ccc(OCCN3CCCC3)cc2)nn1C(=O)c1ccc(-c2ccsc2)cc1 [compound 314, 5-amino-1-(4-(thien-3-yl)phenyl)carbonyl-3-[4-[2-(pyrrolidin-1-yl)ethoxy]phenylamino]-1H-1,2,4-triazole] | < 1 µM | 

Now from value to molecule, other results behind:

IC50 [2] | Compound | also measured
1 to 10 µM | CC(C)Oc1ccc(C(=O)n2nc(Nc3ccc(N4CCCC4)cc3)nc2N)cc1 [compound 293, 5-amino-1-(4-(iso-propoxy)phenyl)carbonyl-3-[4-(pyrrolidin-1-yl)phenylamino]-1H-1,2,4-triazole] | 
> 20 µM | CC(C)(C)c1ccc(C(=O)n2nc(Nc3ccc(N4CCCC4)cc3)nc2N)cc1 [compound 297, 5-amino-1-(4-(tert-butyl)phenyl)carbonyl-3-[4-(pyrrolidin-1-yl)phenylamino]-1H-1,2,4-triazole] | 
1 to 10 µM | CN(C)c1ccc(C(=O)n2nc(Nc3ccc(N4CCCC4)cc3)nc2N)cc1 [compound 299, 5-amino-1-(4-(dimethylamino)phenyl)carbonyl-3-[4-(pyrrolidin-1-yl)phenylamino]-1H-1,2,4-triazole] | 
1 to 10 µM | Cc1ccc(C(=O)n2nc(Nc3ccc(N4CCCC4)cc3)nc2N)cc1 [compound 300, 5-amino-1-(4-(methyl)phenyl)carbonyl-3-[4-(pyrrolidin-1-yl)phenylamino]-1H-1,2,4-triazole] | 
